One assay addresses T1, human MR (Homo sapiens, UniProt P08235).
T1 construct: expressed in transfected cells; host or cells: CV-1 (African Green Monkey Kidney Cells), transiently transfected with pCMX-GAL4-MR
T1 sequence (P08235 671-984): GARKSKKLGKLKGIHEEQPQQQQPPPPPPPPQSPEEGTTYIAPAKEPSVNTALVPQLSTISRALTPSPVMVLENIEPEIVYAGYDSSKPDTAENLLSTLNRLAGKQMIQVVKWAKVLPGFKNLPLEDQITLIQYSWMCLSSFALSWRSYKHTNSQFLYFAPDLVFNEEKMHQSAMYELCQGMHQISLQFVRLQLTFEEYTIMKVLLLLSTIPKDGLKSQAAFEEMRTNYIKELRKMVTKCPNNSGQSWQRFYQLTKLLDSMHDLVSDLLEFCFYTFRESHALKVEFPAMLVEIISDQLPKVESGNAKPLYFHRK
Kind of assay: GAL4-MR cell based assay, antagonist format. As to the method:
Compound activity was determined in a cell-based assay using a GAL4-MR chimera to identify compounds with the ability to modulate MR activity.
The pCMX-GAL4-MR expression plasmid was constructed by cloning nucleotides encoding amino acids 671 to 984 of human MR (see GenBank sequence AAA59571) into the vector pCMX-GAL4 (Perlmann et al., 1993,Genes & Development 7:1411-1422) comprising nucleotides encoding for amino acids 1-147 of the GAL4 DNA binding domain.
The TK-MH 100x4-Luc (GAL4UAS-TK-Luciferase) reporter construct was constructed by insertion of four copies of the Gal4 UAS (Kang et al. 1993, J. Biol. Chem. 268:9629-9635) into the Hind III site of TK-Luc. The parental plasmid, TK-Luc, was prepared by insertion of the Herpes simplex virus thymidine kinase gene promoter (−105 to +51) obtained from the plasmid pBLCAT2 by digestion with HindIII and XhoI (described in Luckow et al., 1987, Nuc. Acid. Res. 15:5490) into the plasmid MMTV-LUC described by Hollenberg and Evans, 1988, Cell 55:899-906) after removal of MMTV-LTR promoter sequence from MMTV-LUC via digestion with HindIII and XhoI. Correct cloning was confirmed by restriction digestion and/or sequencing.
Assays were performed using CV-1 (African Green Monkey Kidney Cells) (ATCC) cells grown in T175 flasks at a density of 3×10^6 cells/flask in DMEM with 5% FBS. Cells were transfected one day after plating at 70-80 percent confluency with a DNA mixture containing (per T175 flask) 9 […] pCMX-GAL4-MR, 9 μg TK-MH100x4-Luc, and 2 μg pCMX β-Gal using the transfection reagent FuGENE6 (Roche Molecular Biochemicals, Indianapolis, Ind.) following recommended protocols and instructions provided by the manufacturer, and incubated with transfection reagents for 5 hours at 37° C.
Transfected cells were trypsinized, resuspended in media, and 45 μL was added to assay plates at a density of approximately 5,000 cells/well using a MultiDrop dispenser (MTX Lab Systems, Inc., VA). The assay plates containing both compounds and screening cells were incubated for approximately 20 hours at 37° C. and 5% CO2 in a tissue culture incubator.
After incubation of the transfected cells with compounds, Lysis buffer (1% Triton X-100, 10% Glycerol, 5 mM DTT, 1 mM EGTA, 25 mM Tricine, pH 7.8) and Luciferin assay buffer (0.73 mM ATP, 22.3 mM Tricine, 0.11 mM EDTA, 33.3 mM DTT, 0.2M MgSO4, 11 mM Luciferin, 6.1 mM Coenzyme A, 0.01 mM HEPES, pH 7.8) were prepared. Media was removed from the plates and lysis buffer and luciferin assay buffer mixed in a 1:1 ratio and then 30 μl of the mixture was added to each well using a Multidrop dispenser. Plates were read on the Northstar (Applied Biosystems, Foster City, Calif.) and data was analyzed using ActivityBase (ID Business Solutions, Ltd., Guildford, Surrey, UK). If required, luciferase values may be normalized for transfection efficiency by measuring β-galactosidase activity based on expression from the pCMX-βGal expression plasmid as described previously (Willy et al., 1995, Gene & Development, 9:1033-1045).
(§1) The following table provides in vitro MR activity data of representative compounds described in the Examples. […] The “+” mark under the selectivity column is given to those compounds having greater than ten-fold antagonist activity against MR compared to at least one nuclear receptor selected from AR, ERα, GR and PR, as determined from the GAL4-AR, GAL4-ERα, GAL4-GR and GAL4-PR assays. The “++” mark under the selectivity column identifies those compounds having greater than ten-fold antagonist activity against MR compared to the four nuclear receptors AR, ERα, GR and PR, as determined from the GAL4-AR, GAL4-ERα, GAL4-GR and GAL4-PR assays.

The test system of a further assay is AR, ERα, GR and PR. Kind of assay: selectivity assays GAL4-AR, GAL4-ERα, GAL4-GR and GAL4-PR, antagonist mode. The conditions noted are these: antagonist activity against MR compared to AR. It counts as cell-based. As for the experimental part:
In certain cases, compounds were also evaluated for activity in selectivity assays with other steroid hormone receptor members, including AR, ER, GR and PR, as well as GAL4 alone. Steroid receptors used for selectivity assays were essentially generated as described above for pCMX-GAL4-MR, and comprised the LBD and a portion of the hinge region of the nuclear receptor of interest cloned in frame into the vector pCMX-GAL4 (Perlmann et al., 1993,Genes & Development 7:1411-1422) as described above.
Assays run in antagonist mode included agonists as follows: AR; 25 nM dihydrotestosterone (DHT), ER; 4.5 nM estradiol, GR; 20 nM dexamethasone, and PR; 2 nM medroxyprogesterone (MPA), respectively. Assays run in agonist mode contained no supplemental compounds.
as §1

Structures are written as SMILES.

Take `Cc1cc(C(=O)Nc2ccc(S(N)(=O)=O)cc2)c(C)n1-c1ccccc1C(F)(F)F` [2,5-Dimethyl-1-(2-trifluoromethyl-phenyl)-1H-pyrrole-3-carboxylic acid (4-sulfamoyl-phenyl)-amide]: the IC50 (usually the point on the concentration scale where inhibition reaches its midpoint) against human MR is less than 500 nM. In addition, the Selectivity result in the assay with AR, ERα, GR and PR is “++ (greater than ten-fold antagonist activity against MR compared to the four nuclear receptors AR, ERα, GR and PR)”.
As to `Cc1cc(C(=O)Nc2ccc(S(C)(=O)=O)cc2)c(C)n1-c1ccccc1C(=O)Nc1cccc([N+](=O)[O-])c1` [2,5-Dimethyl-1-[2-(3-nitro-phenylcarbamoyl)-phenyl]-1H-pyrrole-3-carboxylic acid (4-methanesulfonyl-phenyl)-amide], the IC50 at human MR lay within 500 to 1000 nM. Moreover, in the assay on AR, ERα, GR and PR, the Selectivity result is “+ (greater than ten-fold antagonist activity against MR compared to at least one nuclear receptor selected from AR, ERα, GR and PR)”.
On human MR, `Cc1cc(C(=O)Nc2ccc(S(=O)(=O)NC(=N)N)cc2)c(C)n1-c1ccccc1C(F)(F)F` [2,5-Dimethyl-1-[2-(trifluoromethyl)phenyl]-1H-pyrrole-3-carboxylic acid (4-guanidinosulfonyl-phenyl)-amide] had an IC50 of 1000 to 5000 nM. Moreover, the Selectivity entry in the assay on AR, ERα, GR and PR was “+ (greater than ten-fold antagonist activity against MR compared to at least one nuclear receptor selected from AR, ERα, GR and PR)”.
With `Cc1cc(C(=O)Nc2ccc(S(C)(=O)=O)cc2)c(C)n1-c1cccc2ccccc12` [2,5-Dimethyl-1-naphthalen-1-yl-1H-pyrrole-3-carboxylic acid (4-methanesulfonyl-phenyl)-amide], the IC50 on human MR is less than 500 nM. Further, in the assay on AR, ERα, GR and PR, the Selectivity result is “++ (greater than ten-fold antagonist activity against MR compared to the four nuclear receptors AR, ERα, GR and PR)”.
Consider `COc1cc(NC(=O)c2cc(C)n(-c3ccccc3C(F)(F)F)c2C)ccc1S(N)(=O)=O` [2,5-dimethyl-1-(2-trifluoromethyl-phenyl)-1H-pyrrole-3-carboxylic acid (3-methoxy-4-sulfamoyl-phenyl)-amide], for which the half-maximal inhibitory concentration (IC50) against human MR was less than 500 nM. In the assay with AR, ERα, GR and PR, the Selectivity result was “++ (greater than ten-fold antagonist activity against MR compared to the four nuclear receptors AR, ERα, GR and PR)”.
On to `Cc1cc(C(=O)Nc2ccc(NS(C)(=O)=O)cc2)c(C)n1-c1ccccc1C(F)(F)F` [2,5-dimethyl-1-(2-trifluoromethyl-phenyl)-1H-pyrrole-3-carboxylic acid (4-methanesulfonylamino-phenyl)-amide], for which the 50% inhibitory concentration (IC50) against human MR lay in the range of 500 to 1000 nM. Moreover, the Selectivity entry in the assay with AR, ERα, GR and PR was “+ (greater than ten-fold antagonist activity against MR compared to at least one nuclear receptor selected from AR, ERα, GR and PR)”.
For the compound `Cc1cc(C(=O)Nc2ccc(S(=O)(=O)C(C)C)cc2)c(C)n1-c1ccccc1C(F)(F)F` [2,5-dimethyl-1-(2-trifluoromethyl-phenyl)-1H-pyrrole-3-carboxylic acid [4-(propane-2-sulfonyl)-phenyl]-amide], the half-maximal inhibitory concentration (IC50) against human MR is 500 to 1000 nM. For the same compound, the Selectivity entry in the assay on AR, ERα, GR and PR is “+ (greater than ten-fold antagonist activity against MR compared to at least one nuclear receptor selected from AR, ERα, GR and PR)”.
On human MR, `CCNS(=O)(=O)c1ccc(NC(=O)c2cc(C)n(-c3ccccc3C(F)(F)F)c2C)cc1` [2,5-dimethyl-1-[2-(trifluoromethyl)phenyl]-1H-pyrrole-3-carboxylic acid (4-ethylsulfamoyl-phenyl)-amide] gave an IC50 of 1000 to 5000 nM. Moreover, the Selectivity entry in the assay on AR, ERα, GR and PR was “+ (greater than ten-fold antagonist activity against MR compared to at least one nuclear receptor selected from AR, ERα, GR and PR)”.
`CCc1nc(C(=O)Nc2ccc(S(C)(=O)=O)cc2)c(C)n1-c1ccccc1C(F)(F)F` [2-ethyl-5-methyl-1-(2-trifluoromethyl-phenyl)-1H-imidazole-4-carboxylic acid (4-methanesulfonyl-phenyl)-amide] displayed an IC50 against human MR of less than 500 nM. Besides, in the assay with AR, ERα, GR and PR, the Selectivity result is “++ (greater than ten-fold antagonist activity against MR compared to the four nuclear receptors AR, ERα, GR and PR)”.
`Cc1[nH]c(C(=O)Nc2ccc(S(C)(=O)=O)cc2)c(C)c1-c1ccccc1C(F)(F)F` [3,5-dimethyl-4-(2-trifluoromethyl-phenyl)-1H-pyrrole-2-carboxylic acid (4-methanesulfonyl-phenyl)-amide]: the IC50 against human MR was less than 500 nM. Besides, the Selectivity entry in the assay on AR, ERα, GR and PR was “++ (greater than ten-fold antagonist activity against MR compared to the four nuclear receptors AR, ERα, GR and PR)”.
As to `Cc1c(C(=O)Nc2ccc(S(C)(=O)=O)cc2)cc(-c2ccc(F)cc2)n1-c1ccccc1C(F)(F)F` [5-(4-fluorophenyl)-2-methyl-1-(2-trifluoromethylphenyl)-1H-pyrrole-3-carboxylic acid (4-methanesulfonyl-phenyl) amide], at human MR, the IC50 was less than 500 nM. Also, the Selectivity entry with AR, ERα, GR and PR is “++ (greater than ten-fold antagonist activity against MR compared to the four nuclear receptors AR, ERα, GR and PR)”.

The values are drawn from US20110144128A1, “Heterocyclic Carboxamide Compounds as Steroid Nuclear Receptors Ligands” (EXELIXIS, INC., priority 2005, published 2011).
